pIC50: −log10 of the molar value. Like-named read-outs stand apart in the source and are kept apart here.
Key:
[1] = tested on: Flt-3 receptor; test: Phosphorylation of Flt-3 receptor in MV-4-11 cells (immunoblot); assay type: cell-based, human; conditions: 24 h
Description: A study was carried out to investigate the ability of compound 106 to inhibit phosphorylation of Flt-3 receptor in a FLT3-mutated (AML) cell line in vitro. MV-4-11 human acute myeloid leukemia (AML) cells (Catalog #CRL-9591, ATCC, Rockville, Md.), which carry an activation mutation of Flt-3, were plated into a […] flasks and incubated for 1 day. Then, compound 106 at concentrations of 0.1 nmol/L-300 nmol/L (or culture medium) were added to each flask and cultured for 24 h. The control dish received cultured medium alone. Cells lysates were prepared using ice cold lysis buffer. In order to detect phospho-Flt-3 protein, MV-4-11 cell lysate proteins were subjected to SDS-PAGE under reducing conditions and immunoblotted with an antibody against phospho-Flt-3 antibody (Catalog #3464, Cell Signaling Technology, Danvers, Mass.). Western blots were probed with secondary IRDye antibodies (LI-COR, Inc., Lincoln, Nebr.). Blotted proteins were visualized using the Odyssey infrared imaging system (LI-COR, Inc., Lincoln, Nebr.). Anti-actin antibody (Catalog #sc-8432, Santa Cruz Biotechnologies, Inc., Santa Cruz, Calif.) was used as a loading control.

[2] = tested on: Colo205 human colon cancer xenografts; test: In vivo antitumor activity in Colo205 xenografts; parameters: species or system mice; conditions: similar study with a different dosing schedule
Description: A study was carried out to investigate anticancer activity of compounds 091 and 106 in human Colo205 BRAF mutated colon cancer xenografts. The compounds were evaluated against subcutaneous-implanted Colo205 human colon cancer xenografts in female athymic mice.
(§1) The human colon cancer cell line, Colo205 which has B-RAF (V600E) mutation was transplanted subcutaneously into female nude mice. The experiment consisted of 6 mice per group on the first day of treatment. The compound was administered intravenously for two weekly rounds of five daily injections (q1d×5) with a two-day rest period between the rounds. Compound 091 was administered in a vehicle volume of 0.1 mL/10 g of body weight.
The general health of the mice was monitored daily. Tumor dimensions and body weights were recorded twice a week starting on the first day of treatment. Tumor weights were calculated using the equation (l×w^2)/2, where 1 and w refer to the larger and smaller dimensions collected at each measurement. When the mean tumor volume reached 140 mm^3, vehicle (cremophor:ethanol:5% glucose; 1:1:8) or the test compound (30 mg/kg) was administered to mice (6/group).

[3] = tested on: LOX human melanoma xenografts; test: In vivo antitumor activity in LOX xenografts; parameters: species or system mice
Description: A study was carried out to investigate anticancer activity of compounds 091 and 106 in human LOX BRAF mutated melanoma xenografts. The compounds were evaluated against subcutaneous-implanted LOX human melanoma xenografts in female athymic mice.
as §1, with “human melanoma” for “human colon cancer”, “line, LOX” for “line, Colo205”, “of 8” for “of 6”, “treatment. Compounds were independently” for “treatment. The compound was”, “rounds. Compounds were” for “rounds. Compound 091 was”
The general health of the mice was monitored daily. Tumor dimensions and body weights were recorded twice a week starting on the first day of treatment. Tumor weights were calculated using the equation (l×w^2)/2, where 1 and w refer to the larger and smaller dimensions collected at each measurement. When the mean tumor volume reached 128 mm^3, vehicle (cremophor:ethanol:5% glucose; 1:1:8) or one of the test compounds (10, 20, 30, or 40 mg/kg) was administered to mice (8/group).

[4] = tested on: Cell lines which carried a B-RAF V600E mutation; test: Cell growth inhibition in solid cancer cell lines (CellTiter-Glo or methylene blue); assay type: cell-based; conditions: 96 hours, B-RAF V600E mutated cell lines very sensitive
Description: Compounds 091 and 106, were extensively tested in solid cancer cell lines (shown in FIG. 3 for 18 cell lines for compound 091 and 20 cell lines for compound 106). […] Cell growth was assessed using a CellTiter-Glo® Luminescent Cell Viability Assay (Promega) or a methylene blue assay.

[5] = tested on: PANC-1 pancreatic cancer cells; test: PANC-1 cell growth, alone or in combination with SN-38 (CellTiter-Glo)
Description: To determine whether compounds 091 or 106 in combination with SN-38 would enhance the anticancer activity of chemotherapy due to MEKK1 inhibition, PANC-1 human pancreatic cancer cells were examined.
Antiproliferative effects of SN-38 were evaluated in PANC-1 pancreatic cancer cells in combination with compound 091 or 106. Cultured human cancer cells were placed into 96-well plates and grown in the absence or continuous presence of 0.03-1000 nM SN-38 for 96 h with or without 1 μM of test compound. Cell growth was assessed using CellTiter-Glo® Luminescent Cell Viability Assay (Promega). IC50 values were determined as the concentration of a substance which inhibits cell growth by 50% compared to untreated cell populations.

[6] = molecular target: MEK1 (Homo sapiens, UniProt Q02750); test: Biochemical MEK1 assay (ELISA, ERK2-coated plate); conditions: 1 μmol/L ATP
Description: A biochemical MEK1 assay was carried out to investigate whether compounds of formula (I) or (II), e.g., compounds 029, 091, 106 and 114 are MEK1 inhibitors. Biochemical MEK1 inhibition of the compounds was assessed using an ELISA assay. All assays were performed in a 96 well format. A plate coated with ERK2, a substrate protein for MEK1 was used for biochemical MEK1 assay. In a final volume of 40 μL, MEK1 (25 ng) was incubated with 50 mmol/L HEPES, 20 mmol/L MgCl2, 4 mmol/L MnCl2, and 0.5 mmol/L Na3VO4 in the absence or presence of the test compounds. The reaction was initiated by the addition of 1 μmol/L ATP. After incubation for 40 minutes at 30° C., the reaction mixture was discarded and the plate was then washed 4 times with 0.05% Tween20/PBS. Each well was incubated with 100 μL of 1:4000 diluted phospho-ERK1/2 monoclonal antibody (Cell Signaling, MA) for 1.5 hours at room temperature. The antibody was then discarded and the plate was washed 6 times with 0.05% Tween20/PBS. Finally, 100 μL of 1:2000 diluted of HRP conjugated anti-mouse IgG antibody (Cell Signaling, MA) was added. After incubation for 90 minutes, this antibody was discarded and the plate was washed 8 times with 0.05% Tween20/PBS. Phosphorylated ERK2 was then visualized by peroxidase reaction, and read at 450 nm. FIG. 2A is a table depicting results from MEK1 assays.

[7] = tested on: MV-4-11 AML cells; test: MV-4-11 cell proliferation assay (CellTiter-Glo); assay type: cell-based, human; conditions: 96 h
Description: A study was carried out to investigate the anticancer activity of compound 106 in a FLT-3 mutated (AML) cell line in vitro. The antiproliferative effects of compound 106 were determined in a cell proliferation assay using MV-4-11 AML cells. […] Luminescence was read on the EnVision 2102 Multilabel Counter (Perkin-Elmer/Wallac, Waltham, Mass.). The software, Graphpad Prism (ver. 4, San Diego, Calif.) was used for determination of IC50 values. The raw value for the untreated control represents an average from 4 wells.

[8] = tested on: human hematologic cancer cell lines; test: Antiproliferative effects in hematologic cancer cell lines (MTT assay); assay type: cell-based; conditions: cell lines derived from leukemia, or B-cells such non-Hodgkin's lymphoma, 96 h
Description: A study was carried out to investigate anticancer activity of compounds 091 and 106 in a panel of human hematologic cancer cell lines in vitro. Antiproliferative effects of compounds 091 and 106 were evaluated in 7 human cancer cell lines representing several different cancer types of hematologic malignancy. […] Cell growth was assessed using the MTT assay.

[9] = tested on: Map/Erk kinase (MEK); conditions: cited from earlier work

MEK1, sequence (Q02750 whole entry): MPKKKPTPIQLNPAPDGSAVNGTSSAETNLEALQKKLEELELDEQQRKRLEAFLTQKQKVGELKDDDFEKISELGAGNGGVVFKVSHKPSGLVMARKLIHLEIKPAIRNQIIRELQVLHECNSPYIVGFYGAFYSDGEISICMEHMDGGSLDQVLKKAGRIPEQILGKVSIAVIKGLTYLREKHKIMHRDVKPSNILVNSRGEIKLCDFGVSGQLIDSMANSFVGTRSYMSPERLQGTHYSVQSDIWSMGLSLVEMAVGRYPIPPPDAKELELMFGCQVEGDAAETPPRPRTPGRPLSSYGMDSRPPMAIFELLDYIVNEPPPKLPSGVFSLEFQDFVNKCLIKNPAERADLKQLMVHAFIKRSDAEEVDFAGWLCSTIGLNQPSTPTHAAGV

## CCNc1cc(O)c2c(c1)/C=C/C[C@H](O)[C@H](O)C(=O)/C=C\[C@@H](C)[C@H](C)OC2=O [Compound 106]
[1]; 10 nmol/L
  constitutive phosphorylation of Flt-3 receptor: completely inhibited
[1]; 0.1-300 nmol/L, concentration dependent
  protein level of phospho-Flt-3: decreased
[2]
  tumor regression from the first day of treatment: 70%
[3]; 10 mg/kg
  mice tumor free at the end of study: 5 out of 8
[3]; 20 mg/kg
  mice tumor free at the end of study: 8 out of 8
[3]; 40 mg/kg
  mice tumor free at the end of study: 8 out of 8
[3]; three dosages, 10, 20, and 40 mg/kg/dose
  anticancer activity: statistically significant anticancer activity
[4]
  cell growth inhibition, concentration range of sensitivity: low-nM or sub-μM
[5]; 1 μM alone, separate experiments (data not shown)
  effect on PANC-1 cancer cell growth, compound alone: did not affect
[6]
  MEK1 inhibitory activity: low nM activity
[7]
  IC50, antiproliferative activity: low-nmol/L
[8]
  sensitivity of cell growth: sensitive

## CCc1c2c(nc3ccc(O)cc13)-c1cc3c(c(=O)n1C2)COC(=O)[C@]3(O)CC [SN-38, reference compound]
[5]; read-out: IC50 for cell growth inhibition in combination setting, SN-38 with 1 μM of compound 091 or compound 106, 96 h
  pIC50: 7.79
[5]; read-out: IC50 for cell growth inhibition, SN-38 alone, 96 h
  pIC50: 7.08

## COc1cc(O)c2c(c1)/C=C/C[C@H](O)[C@H](O)C(=O)/C=C\C[C@H](C)OC2=O [Compound F152]
[9]
  inhibition of MEK: inhibit

Reference: patent US8937056B2, “Multikinase inhibitors for use in the treatment of cancer” (Eisai R&D Management Co., Ltd., priority 2007, dated 2015)
